Measurements published in patent US20220389377A1, “TREATMENT OF MEDICAL CONDITIONS BY STEM CELL TRANSPLANTS AND STEM CELL ACTIVATION” (Vitro Biopharma, Inc., priority 2021, published 2022).
Read-outs that look alike come from different tables or passages of the source.

How the values were obtained:
[1] = system: CAFs, primary fibroblasts and MSCs; experiment: Presto Blue proliferation assay, CAFs, primary fibroblasts and MSCs (FGF-2 validation); format: cell-based, human; conditions: 5 day exposure
Protocol: (§1) Example 5: Effects of lithium and VPA on stem cell proliferation: The effects of lithium and VPA on stem cell proliferation were then investigated using an assay based on Presto Blue, a fluorescent marker of cellular reduction. FIG. 8 is a line graph representation illustrating proliferation of different cell lines induced by increasing concentrations of FGF-b (FGF-2) after a 5 day exposure. Relative fluorescent units were measured using a FITC filter on a Modulus microplate reader and plotted as a function of FGF-2. The data was modeled by sigmoidal curve fitting to calculate EC50 values. […] Proliferation of these mesenchymal cells was stimulated by recombinant human FGF-2 with EC50 values in the range of 3 to 6 ng/ml with maximal proliferative responses at about 10 ng/ml.

human NSCs = experiment: Cell migration assay, human NSCs; format: cell-based; conditions: read-out: EC50 of VPA for NSC migration in 200 μM lithium, increasing VPA in 200 μM lithium, FIG. 6
Protocol: (§2) FIG. 1 is a microphotograph depicting cell migration using fluorescent readout and cell tracker green as a fluorescent marker of human UC-MSCs. […] The EC50 was determined as a measure of effectiveness of activating agents. […] An initial analysis of the cell free zone using Image J software was used to screen concentrations of activating agents for dose-response determination in further experiments.
(§3) The cell migration assays described above were set up as follows: One million cells/cell line were resuspended in 10 mL MSC-Gro™ serum free, quiescent medium (Vitro Biopharma Cat. No. SCO0B17) containing 5 μg/mL mitomycin C (Sigma, Cat. No. M4287) to inhibit proliferation and incubated for 2 hours at room temperature with end-to-end agitation at 7 RPM.
In some experiments, curcumin was used at 1 μM to block proliferation. […]
For studies of the effects of CXCR4 and MMP-9 inhibition following 24 hours of cell culture, appropriate wells were dosed with 15 μM GM6001 and 20 μM AMD3100 for 6 hours. […] A TopSeal (PerkinElmer, Cat. No. 6050195) covered the plate for live-cell imaging in a BioTek Cytation3 imaging reader. […]

NSCs = experiment: Presto Blue proliferation assay, NSCs; format: cell-based; conditions: Homo sapiens, 120 h, read-out: EC50 of VPA for NSC proliferation in 200 μM lithium, 5 day exposure, FIG. 10
Protocol: as §1
The proliferative responses of MSCs and NSCs were compared to Li-VPA. The results are shown in FIG. 10, which is a line graph representation illustrating proliferation of MSCs and NSCs as a function of increasing VPA in 200 μM lithium after a 5 day exposure. Relative fluorescent units were measured using a FITC filter on a Modulus microplate reader and plotted as a function of FGF-2. The data was modeled by sigmoidal curve fitting to calculate EC50 values. […] This may reflect intrinsic proliferative capacity. […]

MSCs = experiment: Presto Blue proliferation assay, MSCs; format: cell-based; conditions: Homo sapiens
Protocol: as §1
The proliferative effects of lithium and VPA were compared, either alone or in combination to MSC proliferation. The results are shown in FIG. 9, which is a line graph representation illustrating proliferation of MSCs induced by lithium, VPA and VPA in 200 μM lithium after a 5 day exposure. Relative fluorescent units were measured using a FITC filter on a Modulus microplate reader and plotted as a function of FGF-2. The data was modeled by sigmoidal curve fitting to calculate EC50 values.

human MSCs [2] = experiment: Gene expression analysis by qPCR in human MSCs; format: cell-based; conditions: for expression of Oct 3/4 / expression of SIRT-1 / expression levels of FGF-21, CXCR4 and Hsp70: 250 μM VPA, 500 nM curcumin, FIG. 13
Protocol: Beta actin was measured as a house-keeping gene. […] Gene expression was quantified by determining the amount of gene-specific DNA/total cDNA. Data is mean+/−SD of 4 replicates.
Native human umbilical cord-derived MSCs (Vitro Biopharma Cat. No. SC00A1) were expanded from cryopreservation in T-25 TC-coated flasks (BD Falcon, Cat. No. 353108) in MSC-Gro™ low serum, complete medium (Vitro Biopharma Cat. No. SCO0B1). Cells were sub-cultured and counted on a Beckerman-Coulter Z2 particle counter (range 10 μm-30 μm). Cells were plated at 10,000/cm^2 a TC-coated Greiner Bio-One T75 flask and maintained in MSC-Gro™ serum free, complete medium (Vitro Biopharma Cat. No. SCO0B3) in a reduced O2 environment (1% O2, 5% CO2, 94% N2) at 37° C. in a humidified chamber. The MSCs were treated continuously for up to 2 weeks. Cultures were fed every 3 days. Cells were harvested using Accutase (Innovative Cell Technologies Inc., Cat No AT-104) and centrifuged (450×g) for 7 minutes. Cell supernatant was aspirated off and cells were resuspended in 1 mL PBS and counted on a Beckerman-Coulter Z2 particle counter (range 10 μm-30 μm). Total RNA was extracted using RNeasy mini kit (Qiagen Cat. No. 74104). RNA was quantified using an absorbance measurement at 260 nm. RNA was converted to cDNA using Quantitect reverse transcription kit (Qiagen Cat. No. 205310) in a thermocycler. RNA was incubated in the gDNA elimination reaction for 2 minutes at 42° C. then incubated in the reverse-transcription master mix for 15 minutes at 42° C. Immediately after, it was incubated at 95° C. for 3 minutes for inactivation. cDNA was sent to an outside lab (CU-Anschutz Metabolic Laboratory) for q-PCR to detect relative or absolute gene expression levels. cDNA was diluted 1:5 and an iTaq Universal Supermix fluorescent probe (BioRad Cat. No. 172-5120) used to detect the threshold cycle (Ct) during PCR Dilution factors and cDNA concentrations were calculated into recorded values then normalized to untreated hMSCs (Vitro Biopharma Cat. No. SC00A1).
Gene expression was quantified by determining the amount of gene-specific DNA/total cDNA. Data is mean+/−SD of 4 replicates.
Native human umbilical cord-derived MSCs (Vitro Biopharma Cat. No. SC00A1) were expanded from cryopreservation in T-25 TC-coated flasks (BD Falcon, Cat. No. 353108) in MSC-Gro™ low serum, complete medium (Vitro Biopharma Cat. No. SCO0B1). Cells were sub-cultured and counted on a Beckerman-Coulter Z2 particle counter (range 10 μm-30 μm). Cells were plated at 10,000/cm2 a TC-coated Greiner Bio-One T75 flask and maintained in MSC-Gro™ serum free, complete medium (Vitro Biopharma Cat. No. SCO0B3) in a reduced O2 environment (1% O2, 5% CO2, 94% N2) at 37° C. in a humidified chamber. The MSCs were treated continuously for up to 2 weeks. Cultures were fed every 3 days. Cells were harvested using Accutase (Innovative Cell Technologies Inc., Cat No AT-104) and centrifuged (450×g) for 7 minutes. Cell supernatant was aspirated off and cells were resuspended in 1 mL PBS and counted on a Beckerman-Coulter Z2 particle counter (range 10 μm-30 μm).
Total RNA was extracted using RNeasy Mini Kit (Qiagen Cat. No. 74104). RNA was quantified using an absorbance measurement at 260 nm. RNA was converted to cDNA using Quantitect reverse transcription Kit (Qiagen Cat. No. 205310) in a thermocycler. RNA was incubated in the DNA elimination reaction for 2 minutes at 42° C. then incubated in the reverse-transcription master mix for 15 minutes at 42° C. Immediately after, it was incubated at 95° C. for 3 minutes for inactivation. cDNA was sent to an outside lab (CU-Anschutz Metabolic Laboratory) for q-PCR to detect relative or absolute gene expression levels. cDNA was diluted 1:5 and an iTaq Universal Supermix fluorescent probe (BioRad Cat. No. 172-5120) was used to detect the threshold cycle (Ct) during PCR.

human MSCs [3] = experiment: cells; conditions: for EC50: Homo sapiens; for effect on MSC migration induced by curcumin and quercetin / effect on MSC migration induced by curcumin and resveratrol: 20 μM AMD3100 or 15 μM GM6001; for effect on MSC migration induced by Li-VPA: both AMD 3100 and GM6001 present
Protocol: as §2, §3
In some experiments, curcumin was used at 1 μM to block proliferation. Cells were centrifuged (450×g) for 7 minutes, washed with PBS and then resuspended in 1 mL MSC-Gro™ low serum, complete medium (Vitro Biopharma Cat. No. SCO0B1) and plated at 25,000 cells/well in black 96 well, TC-coated cell culture plates (ThermoScientific, Cat. No. 165305) containing cell seed-stoppers (Platypus, Cat. No. CMAUFL4) to form a cell free zone at the center of the well and incubated in 5% CO2, 1% O2, 94% N2 at 37° C. in a humidified chamber for 24 hrs. Plates used for culture of NSCs were first treated with 10 μg/mL fibronectin (Sigma, Cat. No. F0556) for 2 hours at 37° C. Following washout with PBS (3×), cell seed stoppers were inserted, NSCs were plated at 25,000/well and incubated in 5% CO2, 1% O2, 94% N2 at 37° C. in a humidified chamber for 48 hrs.
For studies of the effects of CXCR4 and MMP-9 inhibition following 24 hours of cell culture, appropriate wells were dosed with 15 μM GM6001 and 20 μM AMD3100 for 6 hours. Cells were washed once with PBS then incubated in serum free, MSC-Gro™ (Vitro Biopharma Cat. No. SCO0B17) containing 5 μM Cell Tracker Green CIVIFDA (Molecular Probes, Cat. No. C7025) at 37° C. for 30 minutes. The wells were then washed with serum free, MSC-Gro™ (Vitro Biopharma Cat. No. SCO0B17) and incubated for 30 minutes at 37° C. Cells were washed once with PBS and this was replaced with MSC-Gro™ serum free, quiescent medium (Vitro Biopharma Cat. No. SCO0B17) containing different concentrations of activating agents. […] A TopSeal (PerkinElmer, Cat. No. 6050195) covered the plate for live-cell imaging in a BioTek Cytation3 imaging reader. Kinetic data was acquired every 2 hrs for 24 hrs using a GFP filter and bright field data acquisition. The gas phase throughout the acquisition of kinetic data was 5% O2, 5% CO2 with the balance nitrogen maintained by a BioTek CO2/O2 gas controller. Images were saved as TIFF files to calculate percent closure using imaging data.

human fibroblast = conditions: read-out: EC50 of human fibroblast migration induced by Substance P (prior study); suspension culture system; Parenti et al. 1996; cited from earlier work
[4] = Example 6, 31.25 μM VPA, 200 μM lithium, FIG. 11

Question: With “FGF-2: recombinant human FGF-2, member of the family of fibroblast growth factors” as the compound, how does the “concentration of maximal proliferative responses” value [1] read?
Answer: The value was “about 10 ng/ml”.

Question: Which EC50 (human NSCs) does the source give for `CCCC(CCC)C(=O)O` [VPA, valproic acid] here?
Answer: Its EC50 is 35.2 µM.

Question: And the EC50 (NSCs)?
Answer: The EC50 was 36.8 µM.

Question: And the EC50 (MSCs; 200 μM lithium, MSCs and NSCs, proliferation and migration, read-out: VPA concentration 50% effective in inducing cell proliferation and migration (mean))?
Answer: Its EC50 is 37 µM.

Question: What about the EC50 (MSCs; 200 μM lithium, MSCs and NSCs, proliferation and migration, read-out: VPA concentration 50% effective in inducing cell proliferation and migration (range)) of the same compound?
Answer: Its EC50 is 35 to 39 µM.

Question: What about the EC50 (MSCs; 120 h, 5 day exposure, FIG. 9, read-out: EC50 of MSC proliferation, agent alone) of the same compound?
Answer: The EC50 was 47.7 µM.

Question: And the EC50 (MSCs; 120 h, read-out: EC50 of VPA for MSC proliferation in 200 μM lithium, 5 day exposure, 200 μM lithium)?
Answer: The EC50 was 63.3 µM.

Question: What about the “expression of Oct 3/4 compared to untreated human MSCs” value (human MSCs [2]; [4]) of the same compound?
Answer: Its value is “about 20 fold”.

Question: And the “expression of SIRT-1 compared to untreated MSC” value (human MSCs [2]; [4])?
Answer: The value was roughly 300 fold.

Question: And the “expression of Oct 3/4” value (human MSCs [2]; Example 8)?
Answer: The value was “about 20 fold”.

Question: And the “expression of SIRT-1” value (human MSCs [2]; Example 8)?
Answer: The value was roughly 300 fold.

Question: And the EC50 (human MSCs [3]; read-out: EC50 of MSC migration, agent alone, percent closure, sigmoidal curve fit, FIG. 5)?
Answer: Its EC50 is 38.5 µM.

Question: What about the EC50 (human MSCs [3]; read-out: EC50 of VPA for MSC migration in 200 μM lithium, increasing VPA in 200 μM lithium) of the same compound?
Answer: The EC50 was 33 µM.

Question: And the “concentration of maximal migration / maximum closure” value (human MSCs [3]; agent alone, FIG. 5)?
Answer: The value was 100 µM.

Question: What does the source list for `CSCC[C@H](NC(=O)[C@H](CC(C)C)NC(=O)CNC(=O)[C@H](Cc1ccccc1)NC(=O)[C@H](Cc1ccccc1)NC(=O)[C@H](CCC(N)=O)NC(=O)[C@H](CCC(N)=O)NC(=O)[C@@H]1CCCN1C(=O)[C@H](CCCCN)NC(=O)[C@@H]1CCCN1C(=O)[C@@H](N)CCCNC(=N)N)C(N)=O` [Substance P]?
Answer: EC50 (human fibroblast): 0.0022 µM; MSC migration into cell-free center of the well (human MSCs [3]; 3.7 nM Substance P, 24 hours): induced MSC migration into the cell-free center of the well; MSC migration (percent closure) dose-response (human MSCs [3]; Substance P from 0 to 18.5 nM, 24-hour live cell analysis): migration increased in a dose-dependent manner

Question: Which “effect on lithium-induced MSC migration” value (human MSCs [3]; 15 μM GM6001, MMP-9 inhibitor, FIG. 7) does the source give for `CNC(=O)[C@H](Cc1c[nH]c2ccccc12)NC(=O)[C@@H](CC(=O)NO)CC(C)C` [GM6001] here?
Answer: Its value is “blocked”.

Question: And the “effect on MSC migration induced by curcumin and quercetin” value (human MSCs [3]; FIG. 14)?
Answer: The value was “blocked MSC migration”.

Question: And the “effect on MSC migration induced by curcumin and resveratrol” value (human MSCs [3]; FIG. 15)?
Answer: The value was “blocked MSC migration”.

Question: And the “effect on MSC migration induced by Li-VPA” value (human MSCs [3]; FIG. 7)?
Answer: Its value is “blocked”.

Question: Which “expression levels of FGF-21, CXCR4 and Hsp70” value (from here on “expression levels”) (human MSCs [2]; Example 8) does the source give for `CCCC(=O)[O-].[Na+]` [Na butyrate] here?
Answer: The value was “lower levels”.

Question: What about the “expression of Oct 3/4” value (human MSCs [2]; Example 8) of the same compound?
Answer: Its value is “less expression activation”.

Question: What about the “expression of SIRT-1” value (human MSCs [2]; Example 8) of the same compound?
Answer: Its value is “significantly less effective”.

Question: For `O=c1c(O)c(-c2ccc(O)c(O)c2)oc2cc(O)cc(O)c12` [quercetin], which EC50 (human MSCs [3]; read-out: EC50 of quercetin for MSC migration in 500 nM curcumin, 500 nM curcumin, FIG. 14) is on record?
Answer: Its EC50 is 0.317 µM.

Question: Which “expression of Oct 3/4, SIRT-1, FGF21, CXCR4 and Hsp70 as compared to VPA” value (human MSCs [2]; Example 8, 500 nM curcumin vs 250 μM VPA) does the source give for `COc1cc(/C=C/C(=O)CC(=O)/C=C/c2ccc(O)c(OC)c2)ccc1O` [curcumin] here?
Answer: Its value is “equivalent or increased expression”.

Question: And the “expression of Oct 3/4” value (human MSCs [2]; Example 8)?
Answer: The value was “about 20 fold”.

Question: And the “expression of SIRT-1” value (human MSCs [2]; Example 8)?
Answer: Its value is roughly 300 fold.

Question: And the EC50 (human MSCs [3]; 36 h, read-out: apparent EC50 of curcumin-induced migration, MSCs, percent closure after 36-hour run)?
Answer: Its EC50 is 0.25 µM.

Question: And the “concentration at which curcumin induced migration” value (human MSCs [3]; human MSCs, 36-hour run)?
Answer: The value was “less than 1 μM”.

Question: And the “estimated LD50 (apparent toxicity, reduced cell number)” value (human MSCs [3]; human, 36 h)?
Answer: The value was 3 µM.

Question: For `Oc1ccc(C=Cc2cc(O)cc(O)c2)cc1` [resveratrol], which EC50 (human MSCs [3]; read-out: EC50 of resveratrol for MSC migration in 500 nM curcumin, 500 nM curcumin, FIG. 15) is on record?
Answer: The EC50 was 0.253 µM.

Question: Which “expression levels” value (human MSCs [2]; Example 8) does the source give for `CC(/C=C/C(=O)NO)=C\[C@@H](C)C(=O)c1ccc(N(C)C)cc1` [TSA] here?
Answer: Its value is “lower levels”.

Question: What about the “expression of Oct 3/4” value (human MSCs [2]; Example 8) of the same compound?
Answer: Its value is “less expression activation”.

Question: What about the “expression of SIRT-1” value (human MSCs [2]; Example 8) of the same compound?
Answer: Its value is “significantly less effective”.

Question: With `CCCCC(=O)O` [valeric acid] as the compound, how does the “expression levels” value (human MSCs [2]; Example 8) read?
Answer: Its value is “lower levels”.

Question: What about the “expression of Oct 3/4” value (human MSCs [2]; Example 8) of the same compound?
Answer: Its value is “less expression activation”.

Question: And the “expression of SIRT-1” value (human MSCs [2]; Example 8)?
Answer: The value was “significantly less effective”.

Question: With `c1cc(CN2CCCNCCNCCCNCC2)ccc1CN1CCCNCCNCCCNCC1` [AMD3100] as the compound, how does the “effect on VPA-induced MSC migration” value (human MSCs [3]; 20 μM AMD3100, CXCR4 inhibitor, FIG. 7) read?
Answer: The value was “blocked”.

Question: What about the “effect on MSC migration induced by curcumin and quercetin” value (human MSCs [3]; FIG. 14) of the same compound?
Answer: The value was “blocked MSC migration”.

Question: And the “effect on MSC migration induced by curcumin and resveratrol” value (human MSCs [3]; FIG. 15)?
Answer: Its value is “blocked MSC migration”.

Question: What about the “effect on MSC migration induced by Li-VPA” value (human MSCs [3]; FIG. 7) of the same compound?
Answer: Its value is “blocked”.
